ChEMBL document CHEMBL5252623, “Discovery of 3-phenyl-1,2,4-oxadiazole derivatives as a new class of SARS-CoV-2 main protease inhibitors” (Bioorg Med Chem Lett, 2023)

Each compound was assayed against Replicase polyprotein 1ab (Severe acute respiratory syndrome coronavirus 2, UniProt P0DTD1) (assay: Inhibition of SARS-CoV-2 main protease expressed in Escherichia coli BL21 (DE3) using MDA-AVLQSGFR-Lys(Dnp)-Lys-NH2 as substrate incubated for 10 mins by FRET analysis).

**Q.** How did the IC50 turn out when O=C(C#Cc1ccccc1)NCc1nc(-c2ccc(C(F)(F)F)cc2)no1 was run?
**A.** 46.9 µM

**Q.** With O=C(CCc1ccccc1)NCc1nc(-c2ccc(C(F)(F)F)cc2)no1 as the compound, how does the IC50 read?
**A.** 90.5 µM

**Q.** With CC1=C(c2ccccc2)C1C(=O)NC(Cc1ccc(F)cc1)c1nc(-c2ccc(C(F)(F)F)cc2)no1 (stereo not given) as the compound, how does the IC50 read?
**A.** 16.5 µM

**Q.** With CC1=C(c2ccccc2)C1C(=O)NC(Cc1ccccc1)c1nc(-c2ccc(C(F)(F)F)cc2)no1 (stereo not given) as the compound, how does the IC50 read?
**A.** 5.27 µM

**Q.** O=C(/C=C/c1cccs1)NCc1nc(-c2ccc(C(F)(F)F)cc2)no1 was tested. Which IC50 did it give?
**A.** 54.6 µM

**Q.** CC1=C(c2ccccc2)C1C(=O)NCc1nc(-c2cccc(C(F)(F)F)c2)no1 (stereo not given) was tested. Which IC50 did it give?
**A.** 14.3 µM

**Q.** For CC1=C(c2ccccc2)C1C(=O)NC(Cc1ccc2ccccc2c1)c1nc(-c2ccc(C(F)(F)F)cc2)no1 (stereo not given), which IC50 is on record?
**A.** 6.47 µM

**Q.** For CC1=C(c2ccccc2)C1C(=O)NC(Cc1cccc(F)c1)c1nc(-c2ccc(C(F)(F)F)cc2)no1 (stereo not given), which IC50 is on record?
**A.** 14.2 µM

**Q.** O=C(/C=C/c1ccco1)NCc1nc(-c2ccc(C(F)(F)F)cc2)no1 was tested. Which IC50 did it give?
**A.** 60.5 µM

**Q.** Which IC50 does the source give for CC1=C(c2ccccc2)C1C(=O)NCc1nc(-c2ccc(C(F)(F)F)cc2)no1 (stereo not given) here?
**A.** 6.71 µM

**Q.** With CC1=C(c2ccccc2)C1C(=O)NC(CC1CC1)c1nc(-c2ccc(C(F)(F)F)cc2)no1 (stereo not given) as the compound, how does the IC50 read?
**A.** 76.8 µM

**Q.** For CC1=C(c2ccccc2)C1C(=O)NC(CC1CCCCC1)c1nc(-c2ccc(C(F)(F)F)cc2)no1 (stereo not given), which IC50 is on record?
**A.** 19.4 µM

**Q.** Which IC50 does the source give for CC1=C(c2ccccc2)C1C(=O)NC(Cc1ccccc1F)c1nc(-c2ccc(C(F)(F)F)cc2)no1 (stereo not given) here?
**A.** 7.48 µM

**Q.** O=C(/C=C/c1ccccn1)NCc1nc(-c2ccc(C(F)(F)F)cc2)no1 was tested. Which IC50 did it give?
**A.** 102 µM

**Q.** With CC1=C(c2ccccc2)C1C(=O)NC(Cc1cc2ccccc2[nH]1)c1nc(-c2ccc(C(F)(F)F)cc2)no1 (stereo not given) as the compound, how does the IC50 read?
**A.** 14.7 µM

**Q.** How did the IC50 turn out when CC1=C(c2ccccc2)C1C(=O)NCc1nc(-c2ccccc2C(F)(F)F)no1 (stereo not given) was run?
**A.** 66.9 µM

**Q.** How did the IC50 turn out when CC1=C(c2ccccc2)C1C(=O)NCc1nc(-c2ccccc2)no1 (stereo not given) was run?
**A.** 79.6 µM

**Q.** How did the IC50 turn out when C/C=C/C(=O)NCc1nc(-c2ccc(C(F)(F)F)cc2)no1 was run?
**A.** 250 µM

**Q.** Which IC50 does the source give for O=C(/C=C/c1ccccc1)NCc1nc(-c2ccc(C(F)(F)F)cc2)no1 here?
**A.** 46.3 µM

**Q.** For O=C(NCc1nc(-c2ccc(C(F)(F)F)cc2)no1)c1ccccc1, which IC50 is on record?
**A.** 62 µM
